Source: ChEMBL document CHEMBL1158593, “Structure-activity relationships in human toll-like receptor 7-active imidazoquinoline analogues” (J Med Chem, 2010)

molecular target: T1, Toll-like receptor 7 (Homo sapiens, UniProt Q9NYK1)
T1 sequence (Q9NYK1 whole entry): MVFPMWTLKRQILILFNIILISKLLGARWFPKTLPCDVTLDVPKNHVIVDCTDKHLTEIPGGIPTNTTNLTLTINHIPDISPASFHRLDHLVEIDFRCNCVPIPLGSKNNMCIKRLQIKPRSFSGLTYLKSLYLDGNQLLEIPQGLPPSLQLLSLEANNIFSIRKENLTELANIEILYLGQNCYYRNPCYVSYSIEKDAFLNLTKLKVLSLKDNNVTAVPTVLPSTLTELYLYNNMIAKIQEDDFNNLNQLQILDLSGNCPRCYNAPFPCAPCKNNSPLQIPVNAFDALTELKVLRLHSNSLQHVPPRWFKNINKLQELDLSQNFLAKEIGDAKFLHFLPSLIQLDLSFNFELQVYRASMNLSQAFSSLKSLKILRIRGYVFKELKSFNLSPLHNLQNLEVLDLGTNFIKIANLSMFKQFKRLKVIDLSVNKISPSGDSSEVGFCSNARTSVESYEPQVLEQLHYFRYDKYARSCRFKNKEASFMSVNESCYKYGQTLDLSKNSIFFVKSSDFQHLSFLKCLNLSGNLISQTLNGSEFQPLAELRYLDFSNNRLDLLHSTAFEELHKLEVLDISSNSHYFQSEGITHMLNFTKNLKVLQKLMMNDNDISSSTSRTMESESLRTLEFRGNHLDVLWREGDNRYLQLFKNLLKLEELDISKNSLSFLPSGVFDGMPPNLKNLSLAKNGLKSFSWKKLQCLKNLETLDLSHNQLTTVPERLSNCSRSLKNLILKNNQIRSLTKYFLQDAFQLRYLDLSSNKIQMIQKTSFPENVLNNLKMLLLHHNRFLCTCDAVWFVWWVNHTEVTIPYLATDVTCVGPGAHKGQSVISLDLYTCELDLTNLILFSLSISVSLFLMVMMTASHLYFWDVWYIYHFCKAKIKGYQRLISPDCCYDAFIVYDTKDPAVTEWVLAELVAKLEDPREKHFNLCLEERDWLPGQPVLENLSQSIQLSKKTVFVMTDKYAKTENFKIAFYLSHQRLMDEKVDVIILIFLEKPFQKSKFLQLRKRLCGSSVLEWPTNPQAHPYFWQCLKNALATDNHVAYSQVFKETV
Description: Agonist activity at human TLR7 expressed in NF-kappaB-stimulated HEK293 cells assessed as induction of secreted alkaline phosphatase expression by reporter gene assay

Q: Cc1nc2c(N)nc3ccccc3c2n1Cc1ccccc1 was tested. Which EC50 did it give?
A: 955 nM

Q: With CCCCc1nc2c(NO)nc3ccccc3c2n1Cc1ccccc1 as the molecule, how does the EC50 read?
A: 723 nM

Q: How did the EC50 turn out when CCCCc1nc2c(NN)nc3ccccc3c2n1Cc1ccccc1 was run?
A: 873 nM

Q: How did the EC50 turn out when CCN(CC)Cc1nc2c(N)nc3ccccc3c2n1CC(C)(C)O was run?
A: 7710 nM

Q: How did the EC50 turn out when CCCCCCc1nc2c(N)nc3ccccc3c2n1Cc1ccccc1 was run?
A: 479 nM

Q: How did the EC50 turn out when C=CCCc1nc2c(N)nc3ccccc3c2n1Cc1ccccc1 was run?
A: 262 nM

Q: C#CCCc1nc2c(N)nc3ccccc3c2n1Cc1ccccc1 was tested. Which EC50 did it give?
A: 209 nM

Q: Which EC50 does the source give for CCNCc1nc2c(N)nc3ccccc3c2n1Cc1ccccc1 here?
A: 385 nM

Q: Which EC50 does the source give for CCCCCCCCCc1nc2c(N)nc3ccccc3c2n1Cc1ccccc1 here?
A: 3350 nM

Q: CCc1nc2c(N)nc3ccccc3c2n1Cc1ccccc1 was tested. Which EC50 did it give?
A: 472 nM

Q: Which EC50 does the source give for CCN(CCC#N)Cc1nc2c(N)nc3ccccc3c2n1CC(C)(C)O here?
A: 8390 nM

Q: How did the EC50 turn out when CCCc1nc2c(N)nc3ccccc3c2n1Cc1ccccc1 was run?
A: 647 nM

Q: How did the EC50 turn out when CCCCCCCc1nc2c(N)nc3ccccc3c2n1Cc1ccccc1 was run?
A: 822 nM

Q: Which EC50 does the source give for CCCCc1nc2c(N)nc3ccccc3c2n1Cc1ccccc1 here?
A: 59.1 nM

Q: For CCCCCc1nc2c(N)nc3ccccc3c2n1Cc1ccccc1, which EC50 is on record?
A: 91.5 nM

Q: For CC(C)Cn1cnc2c(N)nc3ccccc3c21 [IMIQUIMOD], which EC50 is on record?
A: 2120 nM
